Laboratory results reported in patent publication US20250339542A1, “CONVERSION OF A BIOLOGICALLY SILENT MIRNA BINDING SMALL MOLECULE TO AN MIRNA DEGRADER” (University of Florida Research Foundation, Incorporated, priority 2020, published 2025).
Where “and” joins values, the source holds several entries; their conditions need not be identical. Equal values may be shown once. Entries after “also recorded” stand apart in the source; their conditions may differ.

How the values were obtained:
[1] = tested on: pre-miR-155; assay: Chem-CLIP and competitive Chem-CLIP of pre-miR-155 in MDA-MB-231 cells; type: cell-based, human; conditions: for enrichment of pre-miR-155 in pulled down fractions (Chem-CLIP): 1×10^−7 M (100 nM)
Protocol: Cellular Chem-CLIP and Competitive-Chem-CLIP of pre-miR-155. MDA-MB-231 cells at 80% confluency in 100 mm dish were treated with Chem-CLIP probe at the indicated concentration overnight. Then cells were washed with DPBS and harvested by scrapping. Total RNA was extracted by using the miRNeasy mini kit (Qiagen) according to the manufacture's protocol. Then, 50 g of total RNA was treated to 150 L of Dynabeads MyOne Streptavidin C1 (Invitrogen) slurry in 500 L of 1×DNA buffer (8.0 mM Na2PO4, 185 mM NaCl, pH=7.0) and shaked for 6 h. The beads then captured on a Magnetic rack and washed with DPBS for 4 times. The bound RNA was then cleaved from beads in 150 μL of 95% formamide with 10 mM EDTA at 95° C. for 30 min. Released RNA was then cleaned up by Zymo Quick-RNA MiniPrep kit per the manufacture's protocol. RT-qPCR was carried out on pre-miR-155 as previously described above by using 10 ng of input cDNA from before and after pulldown RNA samples. Enrichment of pre-miR-155 was calculated as previously reported^15. Competitive Chem-CLIP was completed by pre-treating MDA-MB-231 cells with compound B for 2 h followed by dosing of Chem-CLIP at 100 nM overnight. Sample preparation and data analysis were performed as for Chem-CLIP.

[2] = tested on: pre-miR-155; assay: In vitro RNase L cleavage assay of pre-miR-155; type: biochemical, human
Protocol: pre-miR-155 was then incubated with compound 3 in vitro in an RNase L cleavage assay.
PCR amplification and transcription of DNA templates. PCR amplification of DNA templates of pre-miR-155 and mutants were performed using the pre-miR-155 forward primer containing T7 RNA polymerase promoter and a reverse primer common to both the pre-miR-155 Wild type and Mutant templates. The sequence of Oligonucleotides used in this study can be found in Table 4. PCR amplification was carried out in 350 μL of 1× PCR buffer (10 mM Tris-HCl, pH 9.0, 50 mM KCl, and 0.1% (v/v) Triton X-100), 0.33 mM dNTPs, 4.25 mM MgCl2, 2 μM of each primer(100 μM), and 1.7 μL of Taq DNA polymerase. Thermocycling was done for 35 cycles at 95° C. for 30 s, 55° C. for 30 s, and 72° C. for 60 s. PCR products were confirmed by a 2.5% Agarose Gel stained with ethidium bromide before in vitro transcription. In vitro RNA transcription for the target RNAs were carried out using house made reagents as described previously.^11

[3] = tested on: miR-155; assay: RT-qPCR of mature miR-155 levels in MDA-MB-231 cells; type: cell-based, human; conditions: 48 h
Protocol: (§1) Tissue Culture. MDA-MB-231 cells were obtained from ATCC (HTB-26) and cultured in RPMI medium with […] & 25 mM HEPES (Corning) supplemented with 10% FBS (sigma). MCF-10a cells were obtained from ATCC(CRL-10317) and cultured in DMEM/F12 50/50 with glutamine and 15 mM HEPES(Corning) containing 20% FBS(Sigma), 1×Antibiotic-Antimycotic(Corning), 20 ng/mL of human epidermal growth factor(Pepro Tech Inc.), 100 μg/mL of insulin and […] of hydrocortisone (Pfizer &Bauer). HUVECs were cultured in EGM (Lonza) made using the EGM-2 bullet kit (Lonza) per the manufacturers protocol.
(§2) RT-qPCR analysis for Mature, Primary and Precursor miRNAs and mRNA levels. After compound treatment for the indicated time (MDA-MB-231 48 h and HUVECs 24 h), total RNA was extracted using the Zymo Quick-RNA mini prep kit according to the manufacturers protocol. Reverse Transcription (RT) for microRNAs and pri- and pre-miR-155 were done on 200 ng of RNA using the miScript II RT kit (Qiagen) according to the manufacturer's protocol. The mRNAs were done using QScript (Quanta Bio) on 200 ng of total RNA according to the manufacturer's protocol. RT-qPCR was done as mentioned above. The obtained data was analyzed by using the ΔΔCt method as described previously. For the washout experiment, MDA-MB-231 cells were treated with 3 for 48 h. Then the media was changed with fresh growth medium without compound and the cells incubated for 12, 24 and 36 h with RNA harvested and pre-miR-155 levels analyzed as described above.
(§3) RT-qPCR analysis for Mature, Primary and Precursor miRNAs and mRNA levels part. Relative RNA expression was determined by using ΔΔCt method with 18S rRNA as an internal control. Normalized fold change was calculated with the equation as below: […]

[4] = tested on: GC paired control; assay: MST binding to GC paired control; conditions: microscale thermophoresis
Protocol: (§4) Microscale thermophoresis study of binding. Binding constants were measured by MST using premium capillaries (Nanotemper) using serial dilations of compound from 50 μM to 1 nM in 1:2 dilutions. RNA-Cy5-155-A (20 nM) or Cy5-155-AU (20 nM), Cy5-155-C(20 nM), and Cy5-155-GC (20 nM) were annealed in 2×DNA buffer by heating at 70° C. with cooling to room temperature on the bench. Then the 2× compound and 2× RNA solutions were mixed together in a 1:1 ratio and allowed to equilibrate at room temperature for 10 min. Then, the capillaries were loaded and run on a […] under previously described conditions.^14 MST power was set to 40% and the LED power was set to 3%.

[5] = tested on: pre-miR-155's C-bulge (5′UCG/3′A_U); assay: MST binding to pre-miR-155 C bulge; design: species or system human; conditions: microscale thermophoresis
Protocol: as §4

[6] = molecular target: pre-miR-155's 5′GAU/3′C_A bulge; assay: Microscale thermophoresis (MST) binding to pre-miR-155 A bulge; design: species or system human
Protocol: as §4

[7] = tested on: pre-miR-155; assay: RT-qPCR of pre-miR-155 levels in MDA-MB-231 cells; type: cell-based, human; conditions: MDA-MB-231 cells
Protocol: as §1, §2, §3

[8] = tested on: pre-miR-155; assay: RT-qPCR of pre-miR-155 levels in HUVECs; type: cell-based, human
Protocol: as §1, §2

[9] = tested on: base paired control RNA; assay: MST binding to base paired control RNA (A bulge mutated to AU pair); conditions: microscale thermophoresis
Protocol: as §4

[10] = tested on: miR-155; assay: RT-qPCR of miR-155 levels in HUVECs; type: cell-based, human
Protocol: as §1, §2

[11] = tested on: 3×3 ILL; assay: 2DCS with HiT-StARTS fitness ranking of bound RNA motifs; type: binding
Protocol: 2DCS: Primary Screening. The microarrays were constructed as previously described.^10 Microarrays were by coating glass plates with 25 mL of molten 1% agarose and allowing it to set for 2 h. After setting, the plates were pinned with compound using a Biomek® NX robotic pintool, pinning 100 nL of each compound. The array was dried in a fume hood overnight and then washed in 1× FB supplemented with 0.1% (v/v) Tween-20 and then Nano pure water two times each followed by air drying on the bench top. Once dried, 200 pmol of radiolabeled 3×3 ILL was added to 0.5 mL of 1× FB and folded by heating to 95° C. for 1 min and then cooling to room temperature slowly on the benchtop. Magnesium chloride was added after cooling. Once cooled the solution was brought to a volume of 2.5 mL with 1× FB. The microarrays were pre-hybridized with 1× HB for 5 min and the excess buffer was removed by touching the edge with a Kimwipe. The arrays were then Hybridized with the RNA for 30 min, spreading the solution evenly over the surface with parafilm. After hybridization, the array was washed four times with 1× HB followed by air drying and imaging by autoradiography. Hits were identified as signals with an intensity greater than 3-fold over background radiation on the array. Positive control compounds Mitoxantrone was present on all arrays.
2DCS: tRNA Counter Screen. To remove non-specific RNA binders hits identified above were subjected to competitive screening with cold yeast tRNA. The assay was carried out as previously described.^10 Briefly, arrays were constructed on Inkjet Superfrost microscope slides (Fisher) by applying 2 mL of molten 1% agarose onto each slide and curing them for 2 h. Once cured, 200 nL of each compound was spotted onto each plate and the plates dried overnight as previously described. After drying, the slides were washed three times for 5 min each with nano pure water and dried under a stream of compressed air. The slides were then pre-hybridized with 1× HB for 5 min, and then incubated with 100 pmol of folded hot RNA and tRNA (1× relative to the total moles of compound spotted) in 0.4 mL of 1× FB for 30 min. The slides were then washed with 1× HB five times, air dried, and imaged to identify library specific binders. […]
In these equations n1 is the observed reads for all selected RNAs in the RNA-seq data; n2 is the total reads observed for the starting library; p1 is the proportion of the reads for a particular sequence to the total reads in the selected library; p2 is the proportion of the reads for a particular sequence to the total reads of the starting library. We can then use Zobs to rank each sequence, and therefore each RNA motif, by its affinity or fitness which is calculated according to equation (5) below described previously:^10 […]

Cc1c(CCC(=O)NCCCC[C@H](NC(=O)CCCc2ccc(N(CCCl)CCCl)cc2)C(=O)NCCNC(=O)CCCCC2SCC3NC(=O)NC32)[n+](-c2c(C(C)C)cccc2C(C)C)cn1-c1c(C(C)C)cccc1C(C)C (stereo partly drawn) [Compound 6]
enrichment of pre-miR-155 in pulled down fractions (Chem-CLIP) [1]: 4 fold and 7 fold

CCOC(=O)C1=C(Nc2ccccc2)S/C(=C\c2ccc(OCCOCCOCCOCCNC(C)=O)c(O)c2)C1=O [Compound 4]
cleavage of pre-miR-155 [2]: no significant cleavage; also recorded: unable to cleave | effect on miR-155 levels / miR-155 biogenesis [3]: no effect; also recorded: does not affect

CCCCCCCCCCCc1c(CCCCCCCCCCC)[n+](-c2c(C(C)C)cccc2C(C)C)cn1-c1c(C(C)C)cccc1C(C)C [Compound 1]
binding to GC paired control [4]: Neither compound (1 or 2) had any affinity | binding to C bulge [5]: Neither compound (1 or 2) had any affinity; also recorded: Neither molecule showed significant binding | effect on miR-155 levels / miR-155 biogenesis [3]: no effect; also recorded: unable to inhibit | Kd [6]: 490 ± 122 nM | IC50 ([1]; Homo sapiens, 6 held constant at 1×10^−7 M, read-out: IC50 of reduction of pre-miR-155 enrichment (C-Chem-CLIP)): 100 nM | concentration of 1 giving complete ablation of cleavage by 3 ([7]; co-treated with 3 at 1×10^−7 M, mature, pre- and pri-miR-155): 1000 nM | effect on pre-miR-155 levels [8]: no effect | competition of cleavage by 3 ([8]; 3 at 1×10^−8 M, 1 at 1×10^−7 and 1×10^−6 M): dose dependently reduced cleavage | binding to base paired control RNA [9]: no binding; also recorded: Neither molecule showed significant binding | effect on miR-155 levels [10]: no effect

CCCCCCCCCCCc1c(CCCCCCCCCCC)[n+](C)c(CCCO)n1C [Compound C7]
Fitness Score of the next motif [11]: 46% | fitness score of highest affinity interaction, alternating (AU)(UA) pairs [11]: 100%

Cc1cc(C)c(-n2c[n+](-c3c(C)cc(C)cc3C)c3c2C[C@@]2(C)[C@@H](CC[C@@H]4[C@@H]2CC[C@]2(C)[C@@H]([C@H](C)CCCC(C)C)CC[C@@H]42)C3)c(C)c1 [Compound C11]
Fitness Score of the next motif [11]: 56% | fitness score of highest affinity interaction, alternating (AU)(UA) pairs [11]: 100%

CC(=O)NCCCC[C@H](NC(=O)CCCc1ccc(N(CCCl)CCCl)cc1)C(=O)NCCNC(=O)CCCCC1SCC2NC(=O)NC21 (stereo partly drawn) [Compound 7]
enrichment of pre-miR-155 in pulled down fractions (Chem-CLIP) [1]: no enrichment; also recorded: unable to pull down

CCCNC(=O)CCc1c(C)n(-c2c(C(C)C)cccc2C(C)C)c[n+]1-c1c(C(C)C)cccc1C(C)C [Compound 2]
binding to GC paired control [4]: Neither compound (1 or 2) had any affinity | binding to C bulge [5]: Neither compound (1 or 2) had any affinity; also recorded: Neither molecule showed significant binding | effect on miR-155 levels / miR-155 biogenesis [3]: no effect | Kd [6]: 552 ± 120 nM | effect on pre-miR-155 levels [7]: no effect | binding to base paired control RNA [9]: no affinity; also recorded: ablated binding; also recorded: Neither molecule showed significant binding
